Test results published in the PolyMetriX glass transition set.

Row | Structure (SMILES) | glass transition temperature
1 | *C(=O)OCCN(CCOC(=O)c1ccc2c(c1)C(=O)N(c1cccc(N3C(=O)c4ccc(*)cc4C3=O)c1)C2=O)c1ccc(/N=N/c2ccc(F)cc2)cc1 (repeat unit) | 168.00 °C
2 | *C(=O)OCCOC(=O)c1ccc(*)o1 (repeat unit) | 89.0 °C
3 | *C(=O)OCCOC(=O)c1ccc(N2C(=O)c3ccc(*)cc3C2=O)cc1 (repeat unit) | 280.00 °C
4 | *C(=O)OCCOCCOC(=O)c1ccc(N2C(=O)c3ccc(*)cc3C2=O)cc1 (repeat unit) | 101.00 °C
5 | *C(=O)OCCOCCOCCOC(=O)c1ccc(N2C(=O)c3ccc(*)cc3C2=O)cc1 (repeat unit) | 63.00 °C
6 | *CC#CC#CCOc1ccc(C(=O)OCCN(CCOC(=O)c2ccc(O*)cc2)c2ccc([N+](=O)[O-])cc2)cc1 (repeat unit) | 100.00 °C
7 | *CCCCOc1ccc(C(=O)OCCOC(=O)c2ccc(O*)cc2)cc1 (repeat unit) | 53.00 °C
8 | *CCCOc1ccc(OCCCc2nnc(-c3ccc(-c4nnc(*)o4)cc3)o2)c(C)c1 (repeat unit) | 112.00 °C
9 | *CCN(CCOC(=O)OCc1ccc(COC(=O)O*)cc1)c1ccc(/N=N/c2ccc([N+](=O)[O-])cc2)cc1 (repeat unit) | 138.80 °C
10 | *CCN(CCOC(=O)c1cc(OCCC2CCN(c3ccc(S(=O)(=O)C(F)(F)C(F)(F)C(F)(F)C(F)(F)C(F)(F)C(F)(F)C(F)(F)C(F)(F)F)cc3)CC2)cc(C(=O)O*)c1)c1ccc(S(=O)(=O)C(F)(F)C(F)(F)C(F)(F)C(F)(F)C(F)(F)C(F)(F)C(F)(F)C(F)(F)F)cc1 (repeat unit) | 86.00 °C
11 | *CCN(CCOC(=O)c1ccc(C(=O)O*)cc1)c1ccc(-c2nc3ccc([N+](=O)[O-])cc3o2)cc1 (repeat unit) | 208.00 °C
12 | *CCOC(=O)c1ccc(O*)cc1 (repeat unit) | 84.00 °C
13 | *CCOCCOC(=O)O* (repeat unit) | -27.00 °C
14 | *CCOCCOC(=O)c1ccccc1-c1ccccc1C(=O)O* (repeat unit) | 17.00 °C
15 | *CCOCCOCCOC(=O)c1ccc(-c2ccc(-c3ccc(C(=O)O*)cc3)cc2)cc1 (repeat unit) | 50.00 °C
16 | *CCOCCOCCOC(=O)c1ccc(-c2ccc(C(=O)O*)cc2)cc1 (repeat unit) | 20.00 °C
17 | *CCOCCOCCOCCOC(=O)c1ccc(-c2ccc(-c3ccc(C(=O)O*)cc3)cc2)cc1 (repeat unit) | 40.00 °C
18 | *CCOCCOCCOCCOCCOCCOC(=O)c1cccc(C(=O)O*)c1 (repeat unit) | -23.50 °C
19 | *CCOCCOCCOCCOCCOCCOCCOCCOCCOCCOC(=O)c1ccc(-c2ccc(-c3ccc(C(=O)O*)cc3)cc2)cc1 (repeat unit) | 40.00 °C
20 | *CCOCCOc1ccc(N/C=N/c2ccc(O*)cc2)cc1 (repeat unit) | 62.00 °C
21 | *CCOc1ccc(/C=C2\CC/C(=C\c3ccc(OCCOP(=O)(O*)OCC)c(OC)c3)C2=O)cc1OC (repeat unit) | 80.00 °C
22 | *CCOc1ccc(C2(c3ccc(OCCO[Si](O*)(c4ccccc4)c4ccccc4)cc3)c3ccccc3-c3ccccc32)cc1 (repeat unit) | 97.00 °C
23 | *CCOc1ccc(S(=O)(=O)c2ccc(OCCOP(=O)(O*)Oc3ccc(C)cc3)cc2)cc1 (repeat unit) | 46.00 °C

Row | Structure (SMILES) | glass transition temperature
24 | *CCOc1ccc(S(=O)(=O)c2ccc(OCCOP(=O)(O*)Oc3ccccc3)cc2)cc1 (repeat unit) | 49.00 °C
25 | *Cc1ccc(COC(=O)c2cccc(C(=O)O*)c2)cc1 (repeat unit) | 143.00 °C
26 | *OC(=O)OCCOCCOCCOC(=O)OC1COC2C(*)COC12 (repeat unit) | 17.00 °C
27 | *OCCOC(=O)CCCC(=O)OCCOc1nc(-c2ccc(OCCCC)cc2)nc(*)c1-c1ccc(OC)cc1 (repeat unit) | 46.00 °C
28 | *OCCOC(=O)CCCCC(=O)OCCOc1nc(-c2ccc(OCCCC)cc2)nc(*)c1-c1ccc(OC)cc1 (repeat unit) | 34.00 °C
29 | *OCCOC(=O)c1ccc(C(=O)OCCOc2nc(-c3ccc(OCCCC)cc3)nc(*)c2-c2ccc(OC)cc2)cc1 (repeat unit) | 94.00 °C
30 | *OCCOC(=O)c1cccc(C(=O)OCCOc2nc(-c3ccc(OCCCC)cc3)nc(*)c2-c2ccc(OC)cc2)c1 (repeat unit) | 92.00 °C
31 | *O[SiH](*)C (repeat unit) | -3.39 °C
32 | *O[Si](*)(C)C1CC2CC1C1C3CC(CC3C(=O)OC(C)(C)C)C21 (repeat unit) | 90.00 °C
33 | *O[Si](*)(C)C1CC2CC1CC2OC(=O)OC(C)(C)C (repeat unit) | 60.00 °C
34 | *O[Si](*)(C)C=C (repeat unit) | -129.00 °C
35 | *O[Si](*)(C)CCCC(=O)OCC (repeat unit) | -82.00 °C
36 | *O[Si](*)(C)CCCC(=O)OCCCC (repeat unit) | -91.00 °C
37 | *O[Si](*)(C)CCCC(=O)OCCO (repeat unit) | -58.00 °C
38 | *O[Si](*)(C)CCCCCCCC (repeat unit) | -92.00 °C
39 | *O[Si](*)(C)CCCCCCCCCCC(=O)OCCC(F)(F)C(F)(F)C(F)(F)C(F)(F)C(F)(F)C(F)(F)C(F)(F)C(F)(F)F (repeat unit) | -78.00 °C
40 | *O[Si](*)(C)CCCCCCCCCCC(=O)Oc1ccc(-c2ccc(OC(=O)CCCCC(=O)OC3CC(C)CCC3C(C)C)cc2)cc1 (repeat unit) | 16.50 °C
41 | *O[Si](*)(C)CCCCCCCCCCC(=O)Oc1ccc(C(=O)Oc2ccc(-c3ccc(OCC(C)CC)cc3)cc2)cc1 (repeat unit) | 26.70 °C
42 | *O[Si](*)(C)CCCCCCCCCCC(=O)Oc1ccc(C(=O)Oc2ccc(OC(=O)CCCCC(=O)OC3CC(C)CCC3C(C)C)cc2)cc1 (repeat unit) | 20.70 °C
43 | *O[Si](*)(C)CCCCCCCCCCC(=O)Oc1ccc(C(=O)Oc2ccc(OC(=O)c3ccc(OCC(C)CC)cc3)cc2)cc1 (repeat unit) | 28.50 °C
44 | *O[Si](*)(C)CCCCCCCCCCC(=O)Oc1ccc2cc(C(=O)OC3CCC4(C)C(=CCC5C4CCC4(C)C(C(C)CCCC(C)C)CCC54)C3)ccc2c1 (repeat unit) | 27.00 °C
45 | *O[Si](*)(C)CCCCCCCCCCCOc1ccc(-c2ccc(C(=O)Oc3ccc(C(=O)OC(C)C(=O)OC(C)C(=O)OC(C)C(=O)OCC(C)CC)cc3)cc2)cc1 (repeat unit) | 15.00 °C
46 | *O[Si](*)(C)CCCCCCCCCCCOc1ccc(/C=C/c2ccc(OCCCC)cc2)cc1 (repeat unit) | -33.00 °C

Row | Structure (SMILES) | glass transition temperature
47 | *O[Si](C)(C)O[Si](*)(C)CCCCOc1ccc(-c2ccc(C#N)cc2)cc1 (repeat unit) | -5.50 °C
48 | *O[Si](C)(C)O[Si](C)(C)O[SiH](*)O[Si](C)(C)C=C (repeat unit) | -68.00 °C
49 | *O[Si](C)(C)O[Si](C)(C)O[Si](C)(C)O[Si](C)(C)O[Si](C)(C)c1ccc(Oc2ccc([Si](*)(C)C)cc2)cc1 (repeat unit) | -65.00 °C
50 | *O[Si](C)(C)O[Si](C)(C)O[Si](C)(C)O[Si](C)(C)c1ccc([Si](*)(C)C)cc1 (repeat unit) | -72.00 °C
51 | *O[Si](C)(C)O[Si](C)(C)O[Si](C)(C)O[Si](C)(c1ccccc1)c1cccc([Si](*)(C)c2ccccc2)c1 (repeat unit) | -42.00 °C
52 | *O[Si](C)(C)O[Si](C)(C)O[Si](C)(C)c1ccc(Oc2ccc([Si](*)(C)C)cc2)cc1 (repeat unit) | -37.00 °C
53 | *O[Si](C)(C)O[Si](C)(C)O[Si](C)(C)c1ccc([Si](*)(C)C)cc1 (repeat unit) | -62.00 °C
54 | *O[Si](C)(C)c1cc(OCCO)c([Si](*)(C)C)cc1OCCO (repeat unit) | 73.00 °C
55 | *O[Si](C)(C)c1ccc([Si](C)(C)O[SiH](*)CCC(F)(F)F)cc1 (repeat unit) | -37.00 °C
56 | *O[Si](C)(C)c1ccc2cc([Si](*)(C)C)ccc2c1 (repeat unit) | 29.00 °C
57 | *O[Si](C)(C)c1ccc2cc3cc([Si](*)(C)C)ccc3cc2c1 (repeat unit) | 118.00 °C
58 | *O[Si](C)(C)c1ccc2ccc3c([Si](*)(C)C)ccc4ccc1c2c43 (repeat unit) | 65.00 °C
59 | *O[Si](C)(C)c1cccc(C(F)(F)C(F)(F)C(F)(F)c2cccc([Si](*)(C)C)c2)c1 (repeat unit) | -8.00 °C
60 | *O[Si](C)(C)c1cccc([Si](*)(C)C)c1 (repeat unit) | -48.00 °C
61 | *O[Si](O[Si](C)(C)c1ccc([Si](*)(C)C)cc1)(c1ccccc1)c1ccccc1 (repeat unit) | 0.00 °C
62 | *Oc1ccc(/C=N/N=C/c2ccc(Oc3ccc(C(=O)c4ccc(*)cc4)cc3)cc2)cc1 (repeat unit) | 179.00 °C
63 | *Oc1ccc(C(=O)c2ccc(Oc3ccc(C(=O)c4c(C(=O)c5ccc(*)cc5)c(-c5ccccc5)c(-c5ccc6ccccc6c5)c(-c5ccc6ccccc6c5)c4-c4ccccc4)cc3)cc2)cc1 (repeat unit) | 290.00 °C
64 | *Oc1cccc(N(c2ccccc2)c2ccc(-c3ccc(N(c4ccc(/N=N/c5ccc([N+](=O)[O-])cc5)cc4)c4cccc(OC(=O)OCCOCCOC(*)=O)c4)cc3)cc2)c1 (repeat unit) | 111.00 °C
65 | *Oc1cccc(N(c2ccccc2)c2ccc(-c3ccc(N(c4ccccc4)c4cccc(OC(=O)OCCOCCOC(*)=O)c4)cc3)cc2)c1 (repeat unit) | 113.00 °C
66 | *c1ccc(Oc2ccc(C(=O)c3ccc(Oc4ccc(-c5nnc(*)c6c(-c7ccc(F)cc7)c(-c7ccc(F)cc7)c(-c7ccc(F)cc7)c(-c7ccc(F)cc7)c56)cc4)cc3)cc2)cc1 (repeat unit) | 313.00 °C
67 | *c1ccc(Oc2ccc(C(=O)c3ccc(Oc4ccc(C(=O)c5ccc(Oc6ccc(-c7nc(-c8ccccc8)[nH]c7*)cc6)cc5)cc4)cc3)cc2)cc1 (repeat unit) | 230.00 °C
